Measurements published in US6632962B2, “Caspase inhibitors and uses thereof” (Vertex Pharmaceuticals Incorporated, priority 1999, dated 2003).
Where a name gives a salt, the structure may show the parent alone.

Assays:
Caspase-9 = target: T1, Caspase-9 (Homo sapiens, UniProt P55211); test: Caspase-9 assay (fluorogenic substrate cleavage, kinact); type: biochemical; settings: second order rate constant of inactivation; 0.00125 units/ml caspase-9, 50 μM AcDEVD-AMC, buffer with 8% glycerol
T1 construct: purchased Europa Bioproducts UBC2088
T1 sequence (P55211 1-315 limits assumed): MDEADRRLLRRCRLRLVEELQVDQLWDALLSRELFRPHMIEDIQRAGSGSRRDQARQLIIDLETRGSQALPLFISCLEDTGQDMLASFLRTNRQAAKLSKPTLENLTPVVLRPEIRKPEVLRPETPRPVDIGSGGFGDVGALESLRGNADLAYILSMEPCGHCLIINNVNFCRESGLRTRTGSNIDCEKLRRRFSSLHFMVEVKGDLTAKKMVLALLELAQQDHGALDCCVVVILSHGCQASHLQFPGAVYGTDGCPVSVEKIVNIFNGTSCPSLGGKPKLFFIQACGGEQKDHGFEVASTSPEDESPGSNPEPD
T1 sequence (P55211 331-416 limits assumed): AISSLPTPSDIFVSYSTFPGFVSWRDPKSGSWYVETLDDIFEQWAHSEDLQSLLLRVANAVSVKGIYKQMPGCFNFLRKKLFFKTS
Method: (§1) Assay Buffer: 10 mM Tris-HCI (Sigma T-3038), 1 mM dithiothreitol (DTT) (Calbiochem 233153), 0.1% CHAPS (Sigma C-3023), pH 7.5. Purified recombinant human Caspase-8. Substrate (acetyl-Asp-Glu-Val-Asp-amino-4-methyl coumarin, ACDEVD-AMC) (Bachem, I-1660). Serial dilution of test compound in DMSO (Sigma D-2650).
(§2) 70 microliters (μl) assay buffer, 20 μl of substrate and 5 μl of the inhibitor solution were added to the wells of a 96-well microtiter assay plate giving a final concentration of 1.5 nM caspase-8 and 10 μM substrate. The plate was incubated at 50° C. for 15 minutes in a thermostatically controlled plate warmer (Wesbart, UK). The reaction was then started by the addition of enzyme directly to the wells. The reaction was monitored continuously for 20 minutes in a fluorimeter (SPECTRAmax Gemini, Molecular Devices) at 37° C. by following the release of AMC fluorophor at an excitation wavelength of 390 nm and an emission wavelength of 460 nm. For each well, the observed rate of enzyme inactivation at a particular inhibitor concentration, kobs, was computed by direct fits of the data to the equation derived by Thornberry et al., (1994, Biochemistry 33, […]) using a non-linear least squares analysis computer program (PRISM 2.0, Graph Pad Software). To obtain the second order rate constant, kinact, kobs values were plotted against their respective inhibitor concentrations and kinact values were subsequently calculated by computerized linear regression.
Caspase-9 was purchased from Europa Bioproducts (order No UBC2088) and used with a concentration of 0.00125 units/ml (units defined by the manufacturer as amount of enzyme that cleaves 1 nmol of LEHD-pNA in 1 h at 37° C.). The assay was run as described for the caspase-8 assay except that the caspase-9 buffer additionally contained 8% glycerol (and the substrate concentration is 50 μM AcDEVD-AMC as opposed to 10 μM for caspase-8).

[1] = target: recombinant, purified human caspase-8 (Homo sapiens, UniProt Q14790); test: Caspase-8 assay (fluorogenic substrate cleavage, kinact); type: biochemical; settings: second order rate constant of inactivation; 1.5 nM caspase-8, 10 μM AcDEVD-AMC, 37° C.
Chain of recombinant, purified human caspase-8 (Q14790 217-374 limits assumed): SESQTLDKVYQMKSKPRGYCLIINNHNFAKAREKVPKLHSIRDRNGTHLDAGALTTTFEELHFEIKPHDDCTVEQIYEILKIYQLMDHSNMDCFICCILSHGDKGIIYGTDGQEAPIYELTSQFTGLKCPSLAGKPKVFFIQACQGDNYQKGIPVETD
Chain of recombinant, purified human caspase-8 (Q14790 385-479 limits assumed): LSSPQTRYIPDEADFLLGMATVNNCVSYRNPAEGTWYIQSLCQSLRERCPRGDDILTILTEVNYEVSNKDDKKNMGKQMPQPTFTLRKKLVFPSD
Method: The assay for caspase-8 activity was based on the cleavage of a fluorogenic substrate by recombinant, purified human caspase-8 essentially according to the method described by Garcia-Calvo et al (1998) J. Biol. Chem. 273:32608-32613.
as §1, §2

Jurkat E6.1 cells = test: Anti-Fas induced apoptosis assay (DNA fragmentation); type: cell-based; settings: Homo sapiens, anti-Fas antibody CH-11 10 ng/ml, 16-18 hrs, DNA fragmentation OD405
Excerpt: Cellular apoptosis may be induced by the binding of Fas ligand (FasL) to its receptor, CD95 (Fas). CD95 is one of a family of related receptors, known as death receptors, which can trigger apoptosis in cells via activation of the caspase enzyme cascade. The process is initiated by the binding of the adapter molecule FADD/MORT-1 to the cytoplasmic domain of the CD-95 receptor-ligand complex. Caspase-8 then binds FADD and becomes activated, initiating a cascade of events that involve the activation of downstream caspases and subsequent cellular apoptosis. Apoptosis can also be induced in cells expressing CD95 eg the Jurkat E6.1 T cell lymphoma cell line, using an antibody, rather than FasL, to crosslink the cell surface CD95. Anti-Fas-induced apoptosis is also triggered via the activation of caspase-8. This provides the basis of a cell-based assay to screen compounds for inhibition of the caspase-8-mediated apoptotic pathway.
Jurkat E6.1 cells are cultured in complete medium consisting of RPMI-1640 (Sigma No)+10% foetal calf serum (Gibco BRL No.10099-141)+2 mM L-glutamine (Sigma No. G-7513). The cells are harvested in log phase of growth. 100 ml Cells at 5-8×10^5 cells/ml are transferred to sterile 50 ml Falcon centrifuge tubes and centrifuged for 5 minutes at 100× g at room temperature. The supernatant is removed and the combined cell pellets resuspended in 25 ml of complete medium. The cells are counted and the density adjusted to 2×10^6 cells/ml with complete medium.
The test compound was dissolved in dimethyl sulfoxide (DMSO)(Sigma No. D-2650) to give a 100 mM stock solution. This was diluted to 400 μM in complete medium, then serially diluted in a 96-well plate prior to addition to the cell assay plate.
100-μl of the cell suspension ([…]) were added to each well of a sterile 96-well round-bottomed cluster plate (Costar No. 3790). 50 μl of compound solution at the appropriate dilution and 50 μl of anti-Fas antibody, clone CH-11 (Kamiya No.MC-060) at a final concentration of 10 ng/ml, were added to the wells. Control wells were set up minus antibody and minus compound but with a serial dilution of DMSO as vehicle control. The plates were incubated for 16-18 hrs at 37° C. in 5% CO2 and 95% humidity.
Apoptosis of the cells was measured by the quantitation of DNA fragmentation using a ‘Cell Death Detection Assay’ from Boehringer-Mannheim, No. 1544 675. After incubation for 16-18 hrs the assay plates were centrifuged at 100× g at room temperature for 5 minutes. 150 μl of the supernatant were removed and replaced by 150 μl of fresh complete medium. The cells were then harvested and 200 μl of the lysis buffer supplied in the assay kit were added to each well. The cells were triturated to ensure complete lysis and incubated for 30 minutes at 4° C. The plates were then centrifuged at 1900× g for 10 minutes and the supernatants diluted 1:20 in the incubation buffer provided. 100 μl of this solution were then assayed exactly according to the manufacturer's instructions supplied with the kit. OD405 nm were measured 20 minutes after addition of the final substrate in a SPECTRAmax Plus plate reader (molecular Devices). OD405 nm was plotted versus compound concentration and the IC50 values for the compounds were calculated using the curve-fitting program SOFTmax Pro (Molecular Devices) using the four parameter fit option.

| Structure (SMILES) | Kinact (1/M/s), Caspase-9 Activity (Caspase-9) | Kinact (1/M/s), Caspase-8 Activity [1] | IC50 (Jurkat E6.1 cells) [nM] |
| --- | --- | --- | --- |
| O=C(O)CC(NC(=O)c1ccccc1)C(=O)CF (centres unmarked) [Example 1, 3-Benzoylamino-5-fluoro-4-oxo-pentanoic Acid] | A (kinact (1/M/s) greater than 60,000) | A (kinact (1/M/s) greater than 60,000) | < 200 |
| O=C(O)CC(NC(=O)c1ccccc1Cl)C(=O)CF (centres unmarked) [Example 4, 3-(2-Chlorobenzoylamino)-5-fluoro-4-oxo-pentanoic Acid] | – | C (kinact less than 40,000) | < 200 |
| O=C(O)CC(NC(=O)c1ccc(Cl)c(Cl)c1)C(=O)CF (centres unmarked) [Example 7, 3-(3,4-Dichlorobenzoylamino)-5-fluoro-4-oxo-pentanoic Acid] | – | B (kinact between 40,000 and 60,000) | 200 to 1000 |
| O=C(O)CC(NC(=O)c1cccc(F)c1)C(=O)CF (centres unmarked) [Example 10, 5-Fluoro-3-(3-fluorobenzoylamino)-4-oxo-pentanoic Acid] | – | B (kinact between 40,000 and 60,000) | < 200 |
| O=C(O)CC(NC(=O)c1ccc(C(F)(F)F)cc1)C(=O)CF (centres unmarked) [Example 13, 5-Fluoro-3-(4-trifluoromethylbenzoylamino)-4-oxo-pent anoic Acid] | – | C (kinact less than 40,000) | > 1000 |
| O=C(O)CC(NC(=O)c1cccc(-c2ccccc2)c1)C(=O)CF (centres unmarked) [Example 14, 3-(Biphenyl-3-carboxamido)-5-fluoro-4-oxo-pentanoic Acid] | B (kinact less than 60,000) | – | – |
| COc1cccc(C(=O)NC(CC(=O)O)C(=O)CF)c1 (centres unmarked) [Example 16, 5-Fluoro-3-(3-methoxybenzoylamino)-4-oxo-pentanoic Acid] | – | B (kinact between 40,000 and 60,000) | < 200 |
| N#Cc1cccc(C(=O)NC(CC(=O)O)C(=O)CF)c1 (centres unmarked) [Example 19, 3-(3-Cyanobenzoylamino)-5-fluoro-4-oxo-pentanoic Acid] | – | B (kinact between 40,000 and 60,000) | 200 to 1000 |
| O=C(O)CC(NC(=O)c1cccc2ccccc12)C(=O)CF (centres unmarked) [Example 22, 5-Fluoro-3-(naphthyl-1-carboxamido)-4-oxo-pentanoic acid] | – | B (kinact between 40,000 and 60,000) | < 200 |
| O=C(O)CC(NC(=O)c1cccnc1)C(=O)CF (centres unmarked) [Example 25, 5-Fluoro-4-oxo-3-(pyridyl-3-carboxamido)-pentanoic Acid Trifluoroacetate Salt] | – | B (kinact between 40,000 and 60,000) | < 200 |
| O=C(O)CC(NC(=O)c1cccs1)C(=O)CF (centres unmarked) [Example 28, 5-Fluoro-4-oxo-3-(thienyl-2-carboxamido)-pentanoic Acid] | – | C (kinact less than 40,000) | < 200 |
| O=C(O)CC(NC(=O)c1ccsc1)C(=O)CF (centres unmarked) [Example 29, 5-Fluoro-4-oxo-3-(thienyl-3-carboxamido)-pentanoic Acid] | B (kinact less than 60,000) | – | – |
| O=C(O)CC(NC(=O)c1cc2ccccc2[nH]1)C(=O)CF (centres unmarked) [Example 31, 5-Fluoro-3-(1H-indolyl-2-carboxamido)-4-oxo-pentanoi c Acid] | – | C (kinact less than 40,000) | > 1000 |
| O=C(O)CC(NC(=O)c1ccc(-c2ccccc2)o1)C(=O)CF (centres unmarked) [Example 34, 5-Fluoro-3-(5-phenyl-furyl-2-carboxamido)-4-oxo-pentanoic Acid] | – | A (kinact (1/M/s) greater than 60,000) | 200 to 1000 |
| O=C(O)CC(NC(=O)c1cccc(Oc2ccccc2)c1)C(=O)CF (centres unmarked) [Example 37, 5-Fluoro-4-oxo-3-(3-phenoxybenzoylamino)-pentanoic Acid] | – | A (kinact (1/M/s) greater than 60,000) | < 200 |
